Entries after “also recorded” stand apart in the source; their conditions may differ.
Assays:
[1] = tested on: acid-base balance and gas composition of mixed venous blood; assay: Acid-base balance and gas composition of mixed venous blood in hemorrhagic shock (Table 7); format: in vivo, cats; settings: 5 mg/kg i.v.; for Bicarbonate ion content (HCO3 a) / Buffer bases (BBa) / Buffer bases shift (BBa) / Carbonic acid gas tension (PaCO2): mixed venous blood
Description: The influence of S-ethylisothiouronium diethylphosphate on the major indices of the blood acid-base state (AAS) and gas content in hemorrhagic shock was studied at a dose of 5 mg/kg. The cats were narcotized intraperitoneally with pentobarbital sodium (nembutal) at a dose of 40 mg/kg. The blood loss was caused by blood-letting from the common carotid artery in an amount of 3.2% of the animal body mass, which approximately corresponds to 45-47% of the blood circulation volume. The blood-letting was carried out during 3-5 minutes. Tension characteristics of oxygen and carbon dioxide in arterial (PaO2, PaCO2) and mixed venous (PvO2, PvCO2) blood, pHa and pH were studied by Astrup micromethod. The hemoglobin content (Hb) was determined by the cianohemoglobin method. Bicarbonate ion content /HCO3 was calculated with the help of the Severinghause ruler. Calculations were carried out on the CM-1403-02 computer in the Forhtran language program. Indices of the acid-base balance and blood gas content were studied in the initial state, on the 30th minute after acute bleeding as well as on 2nd, 10th, 30th, and 60th minute after the medicine injection. The substance was injected singly intravenously on the 30th minute after the blood-letting.
In the test group (n=6), S-ethylisothiouronium diethylphosphate was injected at a dose of 5 mg/kg.

[2] = tested on: system hemodynamic indices; assay: System hemodynamic indices in narcotised cats (Table 2); format: in vivo
Description: An experimental study of the S-ethylisothiouronium diethylphosphate effect on the indices of system hemodynamics were performed on 8 narcotised cats with a body mass of 2-4 kg. Urethane (30% solution intraperitoneally, 1-1.2 g/kg) was used for narcostisation. To determine the period of maximum efficiency and duration of the preparation effect, the major parameters of the blood circulation were determined before its introduction (initial data) and on the 2nd, 15th, 30th, and 60th minute after the introduction, at a dose of 5 mg/kg.
The system hemodynamics was estimated on the basis of the following indices: arterial blood pressure (AP), heart rate (HR), minute volume of blood circulation (MVC), stroke volume of the heart (SV), total vascular peripheral resistance (PR), work of the left ventricle (Alv).
The arterial pressure was measured in the left […] of cats by a mercury pressure gauge. To prevent blood clotting, 0.2-0.3 ml (1000-1500 units) of heparin was injected intravenously. Heart rate was calculated according to the R--R interval of electrocardiogram. Recording was performed through two-channel electrocardiograph. MVC was calculated according to Ramirez A. A. et al. (1956). SV, ARV, and PR were calculated from the data on MVC, AP, central blood volume, and HR using C. G Wiggers formular (1947). Quantitative material obtained in the experiments was subjected to statistical analysis by the Student t-test.

[3] = Pathomorphological examination of internal organs; format: in vivo, mice, dogs; settings: mean lethal and sublethal doses
Source text: The disturbance to blood circulation has a reversible character and as a rule, it normalized within 7-10 days after the preparation had no longer any effect.

[4] = tested on: acute arterial hypotension, caused by the hexamethonium administration; assay: Acute arterial hypotension caused by hexamethonium (Table 5); format: in vivo, cats; settings: for AP / HF: 5 mg/kg i.v. after hexamethonium 10 mg/kg
Description: The influence of S-ethylisothiouronium diethylphosphate on the background of arterial hypotension caused by a known ganglion blocker-hexamethonium has been studied in cats. Hexamethonium was injected intra- venously at a dose of 10 mg/kg. Vagus and schiatic nerve stimulation was carried out by electrical pulsator with the above-threshold rectangular pulse current having a duration of 1 msec, irritation time of 10 sec, and frequency of 20 pulses/sec (peripheral section of the vagus nerve), and frequency of 300 pulses/sec (central end of the schiatic nerve).

[5] = 5 mg/kg i.v., 2 min after injection
[6] = 5 mg/kg i.v., 15 min after injection
[7] = 5 mg/kg i.v., 30 min after injection
[8] = 5 mg/kg i.v., 60 min after injection

For `CCSC(=N)N` [S-ethylisothiouronium diethylphosphate], the “Oxygen tension (PvO2)” value ([1]; 10 min) was 41.866 ± 11.242, the pHv ([1]; 10 min after injection) was 7.252 ± 0.011 and the “Oxygen tension (PvO2)” value ([1]; 30 min) was 40.533 ± 11.332. For the same compound, the pHv ([1]; 30 min after injection) was 7.222 ± 0.016, the “Oxygen tension (PvO2)” value ([1]; 60 min) was 27.783 ± 4.824 and the pHv ([1]; 60 min after injection) was 7.150 ± 0.130. The “Bicarbonate ion content (HCO3 a)” value ([1]; 10 min) was 17.116 ± 1.576 mmol/L, the “Buffer bases (BBa)” value ([1]; 10 min) was 34.500 ± 2.342 mmol/L and the “Buffer bases shift (BBa)” value ([1]; 10 min) was -8.500 ± 1.491 mmol/L. For the same compound, the “Carbonic acid gas tension (PaCO2)” value ([1]; 10 min) was 40.516 ± 4.340 mm Hg, the “Bicarbonate ion content (HCO3 a)” value ([1]; 30 min) was 16.150 ± 1.951 mmol/L and the “Buffer bases (BBa)” value ([1]; 30 min) was 32.266 ± 3.254 mmol/L. For the same compound, the “Buffer bases shift (BBa)” value ([1]; 30 min) was -9.966 ± 1.388 mmol/L, the “Carbonic acid gas tension (PaCO2)” value ([1]; 30 min) was 40.350 ± 4.611 mm Hg and the “Bicarbonate ion content (HCO3 a)” value ([1]; 60 min) was 17.800 ± 2.162 mmol/L. The “Buffer bases (BBa)” value ([1]; 60 min) was 33.833 ± 3.943 mmol/L, the “Buffer bases shift (BBa)” value ([1]; 60 min) was -11.266 ± 2.569 mmol/L and the “Carbonic acid gas tension (PaCO2)” value ([1]; 60 min) was 55.533 ± 5.049 mm Hg. The “AP increase relative to the initial level” value ([2]; 5 mg/kg i.v., 2nd minute) was 41%, the “Alv above the initial value” ([2]; 5 mg/kg i.v., 2nd minute) was 89% and the MVC increase ([2]; 5 mg/kg i.v., 2nd minute) was 7%. The “PR, % of the initial level” value ([2]; 5 mg/kg i.v., 2nd minute) was 135%, the “Alv above the initial value” ([2]; 5 mg/kg i.v., 15th minute) was 22% and the MVC decrease ([2]; 5 mg/kg i.v., 15th minute) was 11%. For the same compound, the MVC decrease ([2]; 5 mg/kg i.v., 30th minute) was 22%, the “AP above the initial level” value ([2]; 5 mg/kg i.v., 60th minute) was 11% and the “PR above the initial value” ([2]; 5 mg/kg i.v., 60th minute) was 58%. It also gave an AP [2, 5] of 168 ± 9.9 mm Hg, an Alv [2, 5] of 486.2 ± 136.8 g·cm and an HF [2, 5] of 166 ± 17.9 per min. For the same compound, the MVC [2, 5] was 101.9 ± 6.8 mL/min, the PR [2, 5] was 138.6 ± 10.5 10^3 . din . c . cm^-5 /kg and the Stroke volume [2, 5] was 2.14 ± 0.45 mL. For the same compound, the AP [2, 6] was 158 ± 8.1 mm Hg, the Alv [2, 6] was 317.1 ± 59.4 g·cm and the HF [2, 6] was 178 ± 15.4 per min. For the same compound, the MVC [2, 6] was 84.3 ± 5.7 mL/min, the PR [2, 6] was 153.8 ± 7.1 10^3 . din . c . cm^-5 /kg and the Stroke volume [2, 6] was 1.46 ± 0.25 mL. The AP [2, 7] was 152 ± 8.4 mm Hg, the Alv [2, 7] was 251.9 ± 50.3 g·cm and the HF [2, 7] was 192 ± 11.9 per min. The MVC [2, 7] was 74.1 ± 5.2 mL/min, the PR [2, 7] was 168.5 ± 13.0 10^3 . din . c . cm^-5 /kg and the Stroke volume [2, 7] was 1.23 ± 0.21 mL. It also gave an AP [2, 8] of 132 ± 9.3 mm Hg, an Alv [2, 8] of 211.3 ± 56.1 g·cm and an HF [2, 8] of 188 ± 10.4 per min. For the same compound, the MVC [2, 8] was 67.6 ± 8.4 mL/min, the PR [2, 8] was 161.5 ± 14.1 10^3 . din . c . cm^-5 /kg and the Stroke volume [2, 8] was 1.13 ± 0.26 mL. For the same compound, the “Duration of hypertensive effect” value ([2]; 5 mg/kg i.v., single injection) was “up to 1 hour”, the “Effect on system hemodynamics in words” value ([2]; cats) was “on the 30th minute it returned to the initial level” and the Pathomorphological findings [3] was “moderately pronounced signs of hemodynamic disturbance; also recorded: No prounced inflammatory, distrophic or necrobiotic changes of internal organs were observed; also recorded: In some cases, signs of compensatory-adaptation reactions of liver”. For the same compound, the “Time to normalization of blood circulation disturbance” value [3] was 7 to 10 days, the AP ([4]; 2 min) was 152.0 ± 4.6 mm Hg and the HF ([4]; 2 min) was 120.0 ± 12.0 per min. The AP ([4]; 15 min) was 147.0 ± 7.8 mm Hg, the HF ([4]; 15 min) was 105.6 ± 11.6 per min and the AP ([4]; 30 min) was 146.8 ± 4.8 mm Hg. The HF ([4]; 30 min) was 109.2 ± 11.1 per min, the AP ([4]; 60 min) was 143.0 ± 7.2 mm Hg and the HF ([4]; 60 min) was 108.0 ± 15.8 per min. The AP increase ([4]; 5 mg/kg i.v. after hexamethonium, 2nd minute) was 61 mm Hg and the “Effect under ganglion blockade in words” value ([4]; after hexamethonium) was “Respiratory rate did not change; also recorded: HR changed to the direction of bradycardia, however, those changes were not statistically significant; also recorded: ganglion blocking properties are completely retained; also recorded: quickly restores the AP level after the ganglion blocker caused hypotension and maintains it for a long time”.
